Results reported in article PMC9671377, “Label-free affinity screening, design and synthesis of inhibitors targeting the Mycobacterium tuberculosis L-alanine dehydrogenase” (PLOS ONE, 2022).

Experiments:
[1] = target: L225A AlaDH (Mycobacterium tuberculosis, UniProt P9WQB1, L225A); format: biochemical
[2] = target: L249A AlaDH (Mycobacterium tuberculosis, UniProt P9WQB1, L249A); format: biochemical

CC(C)CNc1ncnc2c1ncn2[C@@H]1O[C@H](CO)[C@@H](O)[C@H]1O [N6-isobutyl adenosine]
vi of L225A AlaDH after adding compound [1]: 0.821 x10^-3 [NADH]OD340/min | vi of L249A AlaDH after adding compound [2]: 1.007 x10^-3 [NADH]OD340/min
